Laboratory results reported in paper PMC5622107, “Small molecule inhibition of cGAS reduces interferon expression in primary macrophages from autoimmune mice” (Nature Communications, 2017).
“And” between values parts separate entries of the source, which are not always exact repeats. Equal values may be shown once. Read-outs that look alike come from different tables or passages of the source.

What was measured:
cGAS/dsDNA complex = target: T1, cGAS/dsDNA complex (Mus musculus, UniProt Q8C6L5); experiment: Isothermal titration calorimetry, compound titrated into cGAS/dsDNA complex; assay type: binding
T1 construct: full-length (for high-throughput screening) and residues 147–507 (for structural study) of cGAS; His6-SUMO (N, cleaved yes); made in house; host or cells: E. coli BL21(DE3) RIL
T1 sequence (Q8C6L5 147-507, one chain of several): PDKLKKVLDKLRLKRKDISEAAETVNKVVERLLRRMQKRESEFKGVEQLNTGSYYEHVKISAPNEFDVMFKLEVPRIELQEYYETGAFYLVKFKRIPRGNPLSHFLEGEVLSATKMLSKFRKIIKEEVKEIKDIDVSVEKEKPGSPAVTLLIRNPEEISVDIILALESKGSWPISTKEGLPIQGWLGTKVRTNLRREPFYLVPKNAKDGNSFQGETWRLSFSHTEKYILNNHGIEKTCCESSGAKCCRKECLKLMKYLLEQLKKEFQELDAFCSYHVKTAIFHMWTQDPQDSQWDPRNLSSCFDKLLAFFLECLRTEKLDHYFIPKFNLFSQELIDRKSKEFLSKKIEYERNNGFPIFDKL
Protocol: ITC measurements were performed at 25 °C using a MicroCal auto-iTC200 calorimeter (MicroCal, LLC). Purified truncated mouse cGAS was dialyzed against 40 mM HEPES buffer (pH 7.5) and 300 mM NaCl for 24 h at 4 °C. Dialysis led to some precipitation, which were removed through centrifugation followed by collection of the supernatant. The concentration of the protein in supernatant was measured using Pierce® BCA protein assay. The protein was flash frozen in liquid N2 and stored at −80 °C. For the ITC assay, the dialyzed protein was prediluted to 20 µM in the dialysis buffer and diluted to a final concentration of 10 µM in a final buffer containing 40 mM HEPES, 1% DMSO, 150 mM NaCl, 0.01% Tween-20 and + /− dsDNA 10 µM and + /− ATP or GTP 1 mM. Then, 2 μl RU.365 100 µM, dissolved in the buffer aforementioned, were injected into 0.2 ml of protein in the chamber every 150 s. Data for raw ITC and thermodynamic curves, each from one experiment, were downloaded after analysis using Affinimeter software and plotted using GraphPad Prism (7.01). The software calculates error bars as an indication of the contribution of the raw data noise that is determined from the integral of the standard deviation of the baseline during the injection.

45-bp dsDNA = experiment: DNA intercalation: acridine orange displacement from dsDNA by fluorescence polarization; assay type: binding
Outline: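 Acridine orange displacement from 45-bp dsDNA in HEN buffer (10 mM HEPES pH 7.5, 1 mM EDTA, 100 mM NaCl), compounds at 30 µM final, 30 min incubation. Fluorescence polarization read in mP, buffer-corrected, G-factor 1.0; mitoxantrone 50 µM and DMSO as controls.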

mouse cGAS = target: T2, mouse cGAS (Mus musculus, UniProt Q8C6L5); experiment: RapidFire mass spectrometry (RF-MS) cGAS enzymatic assay, cGAMP product formation; assay type: biochemical; settings: for IC50: read-out: IC50
T2 construct: recombinant full-length mouse cGAS in reaction buffer; His6-SUMO (N, cleaved yes); made in house; host or cells: E. coli BL21(DE3) RIL
T2 sequence (Q8C6L5 whole entry): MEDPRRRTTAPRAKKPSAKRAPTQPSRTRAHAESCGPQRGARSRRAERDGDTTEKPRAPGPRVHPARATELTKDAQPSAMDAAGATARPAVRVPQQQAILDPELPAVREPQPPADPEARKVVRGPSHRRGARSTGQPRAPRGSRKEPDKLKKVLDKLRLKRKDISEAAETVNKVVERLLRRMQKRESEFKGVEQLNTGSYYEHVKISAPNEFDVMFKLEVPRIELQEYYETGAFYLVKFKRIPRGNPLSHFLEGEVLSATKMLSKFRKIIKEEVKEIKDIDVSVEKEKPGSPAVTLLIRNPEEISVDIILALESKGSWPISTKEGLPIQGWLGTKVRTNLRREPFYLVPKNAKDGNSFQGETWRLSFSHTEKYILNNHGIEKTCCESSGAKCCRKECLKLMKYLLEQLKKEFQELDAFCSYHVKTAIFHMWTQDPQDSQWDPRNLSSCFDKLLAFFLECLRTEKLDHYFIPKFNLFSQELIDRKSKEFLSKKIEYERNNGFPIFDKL
Outline: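 Reactions were stopped with 0.5% formic acid, then ATP, GTP and cGAMP were separated by solid-phase extraction on graphitic carbon and detected by negative-ion MS. Product formation (%) = AUCcGAMP×100/(AUCcGAMP + ½AUCATP + ½AUCGTP). Percent inhibition was normalized to positive and negative controls.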

RAW 264.7 = experiment: Cytotoxicity, CellTiter-Glo ATP quantitation at 72 h; assay type: cell-based; settings: for LD50: RAW macrophages, 72 h, percent viability
Protocol: Small-molecule compounds were serially diluted to concentrations spanning the range tested in the response curves were added to 6.7 × 10^5 RAW-Blue macrophages plated 16 h prior in 96-well dishes, then harvested 72 h after compound addition. ATP was measured using CellTiter Glo Viability Assay (Promega) using 50 µM Tamoxifen (Sigma) as a positive control for cytotoxicity. Viability values were generated using vehicle (DMSO) or the first dose (RU.521) as 100% and Tamoxifen as 0%. Outliers were removed as described previously.

[1] = cGAS in presence of dsDNA, no ATP/GTP
[2] = Supplementary Table 3, analogs more potent than RU166365

## Cc1nn(-c2nc3ccccc3[nH]2)c(O)c1C1OC(=O)c2ccccc21 (stereo not drawn) [RU166365]
cGAS/dsDNA complex; cGAS in presence of dsDNA
  T*ΔS: -4.504 kcal/mol
  rM: 0.9075
  ΔG: -9.813 kcal/mol
  ΔH: -14.32 kcal/mol
cGAS/dsDNA complex; [1]
  Kd: 64.1 nM and 64 nM
cGAS/dsDNA complex; cGAS/dsDNA + 1 mM ATP
  Kd: 104 nM
cGAS/dsDNA complex; cGAS/dsDNA + 1 mM GTP
  Kd: 298 nM
cGAS/dsDNA complex; cGAS/dsDNA + ATP 1 mM
  T*ΔS: -2.493 kcal/mol
  rM: 0.9605
  ΔG: -9.524 kcal/mol
  ΔH: -12.02 kcal/mol
cGAS/dsDNA complex; cGAS/dsDNA + GTP 1 mM
  T*ΔS: -3.668 kcal/mol
  rM: 0.9257
  ΔG: -8.902 kcal/mol
  ΔH: -12.57 kcal/mol
45-bp dsDNA; Supplementary Table 2, acridine orange displacement compared to mitoxantrone
  % intercalation at 30 µM: -6.7%
45-bp dsDNA; Supplementary Table 2, compound 30 µM
  Polarization: 264 mP
Mouse cGAS; Supplementary Table 2, batch of compounds stored in the screening library
  IC50: 520 nM
Mouse cGAS; Supplementary Table 2, compound 12.5 µM, read-out: % inhibition at 12.5 µM
  inhibition at 12.5 µM: 99%
Mouse cGAS; [2]
  IC50: 1890 nM
RAW 264.7
  LD50 over cellular IC50: 9 fold
RAW 264.7; listed as RU.365
  LD50: 45 µM

## Cc1nn(-c2nc3ccc(Cl)c(Cl)c3[nH]2)c(O)c1C1OC(=O)c2ccccc21 (stereo not drawn) [RU320521, 3-[1-(6,7-dichloro-1H-benzimidazol-2-yl)-5-hydroxy-3-methyl-pyrazol-4-yl]-3H-isobenzofuran-1-one]
cGAS/dsDNA complex; cGAS in presence of dsDNA
  T*ΔS: -6.134 kcal/mol
  rM: 0.8071
  ΔG: -10.15 kcal/mol
  ΔH: -16.29 kcal/mol
cGAS/dsDNA complex; [1]
  Kd: 36.2 nM
45-bp dsDNA; acridine orange competition screen
  DNA intercalation or interaction: did not show any indication that it could act in a manner that could intercalate or interact with DNA
Mouse cGAS; [2]
  IC50: 110 nM
Mouse cGAS; compared with RU.365
  effect of structural modification on cGAS inhibitory potency: increased inhibitory potency
Mouse cGAS; relative to RU.365
  improvement in potency: 17 fold
RAW 264.7
  LD50 over cellular IC50: 88 fold
RAW 264.7; listed as RU.521
  LD50: 62 µM
